Like-named read-outs stand apart in the source and are kept apart here.
What was measured:
phosphorylated MEK1 = phosphorylated MEK1 (Homo sapiens, UniProt Q02750); test: MEK1 binding assay (HTRF, tracer displacement); conditions: for inhibition at 2 µM: read-out: % binding (2 µM); for inhibition at 20 µM: read-out: % binding (20 µM)
Experimental: The homogeneous time resolved fluorescence (HTRF) assay was performed on a Proxiplate-384 F plus solid back plate (Perkin Elmer, Waltham, MA. USA) with 5 nM GST tagged phosphorylated MEK1 (GST-MEK1), 2 nM europium-labeled anti-GST antibody (Eu-anti-GST), 20 nM kinase tracer 236 and test compound at a variety of concentrations. In the reaction mixture, GST-MEK1 forms a complex with the Eu-anti-GST and the tracer. Excitation of europium (the donor) using a 340-nm excitation filter results in energy transfer to the fluorophore of the tracer. This energy transfer is detected by an increase in the fluorescence emission of the tracer at 665 nm and a decrease in the fluorescence emission of europium at 615 nm. The FRET ratio was calculated by dividing the emission signal at 665 nm by the emission signal at 615 nm. A competitor compound such as a MEK inhibitor replaces the tracer from the complex and decreases the FRET ratio accordingly. The plate was incubated in dark at room temperature for 30 min before measuring the fluorescent emission of each well at 665 and 615 nm using a 340-nm excitation filter, 100-µs delay time, and 200-µs integration time, on a PHERAStar plate reader (BMG Labtech, Durham, NC, USA). […] Data shown as %Inhibition normalized to AZD6244 at 100 µM.

[1] = HTRF binding to GST tagged phosphorylated MEK1, read-out: IC50

Chain of phosphorylated MEK1 (Q02750 whole entry): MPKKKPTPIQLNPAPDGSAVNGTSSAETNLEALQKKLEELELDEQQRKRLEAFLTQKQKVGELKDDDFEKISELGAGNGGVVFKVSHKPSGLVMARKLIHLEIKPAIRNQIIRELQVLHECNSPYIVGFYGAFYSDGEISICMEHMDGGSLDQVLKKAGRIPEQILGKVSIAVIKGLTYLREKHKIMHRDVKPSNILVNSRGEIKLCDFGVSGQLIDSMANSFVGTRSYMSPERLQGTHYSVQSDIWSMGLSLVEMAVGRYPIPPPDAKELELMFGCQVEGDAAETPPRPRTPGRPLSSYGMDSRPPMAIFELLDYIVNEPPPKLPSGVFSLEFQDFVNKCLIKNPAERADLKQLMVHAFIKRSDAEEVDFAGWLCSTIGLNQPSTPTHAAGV

SMILES | melting point [°C] | inhibition at 2 µM (phosphorylated MEK1) [%] | inhibition at 20 µM (phosphorylated MEK1) [%] | IC50 (phosphorylated MEK1) [nM] | binding affinity (in words) (phosphorylated MEK1) | IC50 (phosphorylated MEK1; [1]) [nM]
CCc1c(Cc2ccccc2)c(=O)oc2cc(O)ccc12 [Compound 4d, 3-Benzyl-4-ethyl-7-hydroxy-2H-chromen-2-one] | 140 to 141 | 27 | 10.4 |  |  | 
CCCc1c(Cc2ccccc2)c(=O)oc2cc(O)ccc12 [Compound 4e, 3-Benzyl-7-hydroxy-4-propyl-2H-chromen-2-one] | 139 to 140 | 29.1 | 7.06 |  |  | 
CCc1c(Cc2ccc(F)cc2)c(=O)oc2cc(O)ccc12 [Compound 4g, 4-Ethyl-3-(4-fluorobenzyl)-7-hydroxy-2H-chromen-2-one] | 131 to 132 | 10.9 | 19.6 |  |  | 
CCCc1c(Cc2ccc(F)cc2)c(=O)oc2cc(O)ccc12 [Compound 4h, 3-(4-Fluorobenzyl)-7-hydroxy-4-propyl-2H-chromen-2-one] | 130 to 131 | 20.9 | 20.4 |  |  | 
O=c1cc(CCl)c2ccc(O)cc2o1 [Compound 4i, 4-(Chloromethyl)-7-hydroxy-2H-chromen-2-one] | 166 to 167 | 33.3 | 22.4 |  |  | 
O=c1cc(CO)c2ccc(O)cc2o1 [Compound 4j, 7-Hydroxy-4-(hydroxymethyl)-2H-chromen-2-one] | 148 to 149 | 36.3 | 33.6 |  |  | 
CCc1c(Cc2ccccc2)c(=O)oc2cc(OC(=O)N(C)C)ccc12 [Compound 15, 3-Benzyl-4-ethyl-2-oxo-2H-chromen-7-yl dimethylcarbamate] | 85 to 86 | 85 | 92.8 | 163 |  | 
CCCc1c(Cc2ccccc2)c(=O)oc2cc(OC(=O)N(C)C)ccc12 [Compound 16, 3-Benzyl-2-oxo-4-propyl-2H-chromen-7-yl dimethylcarbamate] | 117 to 118 | 70.9 | 95.4 | 1040 |  | 
CCN(CC)C(=O)Oc1ccc2c(C)c(Cc3ccccc3)c(=O)oc2c1 [Compound 20, 3-Benzyl-4-methyl-2-oxo-2H-chromen-7-yl diethylcarbamate] | 109 | 15.5 | 20 |  |  | 
CCN(CC)C(=O)Oc1cc2oc(=O)c(Cc3ccccc3)c(C)c2cc1Cl [Compound 21, 3-Benzyl-6-chloro-4-methyl-2-oxo-2H-chromen-7-yl diethylcarbamate] | 83 to 84 | 27 | 48.1 |  |  | 
CCc1c(Cc2ccccc2)c(=O)oc2cc(OC(=O)N(CC)CC)ccc12 [Compound 22, 3-Benzyl-4-ethyl-2-oxo-2H-chromen-7-yl diethylcarbamate] | 64 to 65 | 6.63 | 48.1 |  |  | 
CCCc1c(Cc2ccccc2)c(=O)oc2cc(OC(=O)N(CC)CC)ccc12 [Compound 23, 3-Benzyl-2-oxo-4-propyl-2H-chromen-7-yl diethylcarbamate] | 112 to 113 | 43.1 | 46.1 |  |  | 
CCN(CC)C(=O)Oc1ccc2c(C)c(Cc3ccc(F)cc3)c(=O)oc2c1 [Compound 24, 3-(4-Fluorobenzyl)-4-methyl-2-oxo-2H-chromen-7-yl diethylcarbamate] | 101 to 102 | 22.3 | 27.8 |  |  | 
CCc1c(Cc2ccc(F)cc2)c(=O)oc2cc(OC(=O)N(CC)CC)ccc12 [Compound 25, 4-Ethyl-3-(4-fluorobenzyl)-2-oxo-2H-chromen-7-yl diethylcarbamate] | 74 to 75 | 25.9 | 59.2 |  | active | 
CCCc1c(Cc2ccc(F)cc2)c(=O)oc2cc(OC(=O)N(CC)CC)ccc12 [Compound 26, 3-(4-Fluorobenzyl)-2-oxo-4-propyl-2H-chromen-7-yl diethylcarbamate] | 51 to 52 | 35.2 | 37.5 |  |  | 
CC(=O)Oc1cc2oc(=O)c(Cc3ccccc3)c(C)c2cc1Cl [Compound 27, 3-Benzyl-6-chloro-4-methyl-2-oxo-2H-chromen-7-yl acetate] | 190 | 30.6 | 30.8 |  |  | 
CCCc1c(Cc2ccccc2)c(=O)oc2cc(OC(C)=O)ccc12 [Compound 30, 3-Benzyl-2-oxo-4-propyl-2H-chromen-7-yl acetate] | 139 to 140 | 15.5 | 25.6 |  |  | 

SMILES | melting point [°C] | inhibition at 2 µM (phosphorylated MEK1) [%] | inhibition at 20 µM (phosphorylated MEK1) [%] | IC50 (phosphorylated MEK1) [nM] | binding affinity (in words) (phosphorylated MEK1) | IC50 (phosphorylated MEK1; [1]) [nM]
CCc1c(Cc2ccc(F)cc2)c(=O)oc2cc(OC(C)=O)ccc12 [Compound 32, 4-Ethyl-3-(4-fluorobenzyl)-2-oxo-2H-chromen-7-yl acetate] | 122 to 123 | 94.6 | 101 |  | active | 91.2
CCC(=O)Oc1cc2oc(=O)c(Cc3ccccc3)c(C)c2cc1Cl [Compound 34, 3-Benzyl-6-chloro-4-methyl-2-oxo-2H-chromen-7-yl propionate] | 124 to 126 | 70 | 72.4 |  |  | 326
CCC(=O)Oc1ccc2c(C)c(Cc3ccccc3)c(=O)oc2c1 [Compound 35, 3-Benzyl-4-methyl-2-oxo-2H-chromen-7-yl propionate] | 118 to 119 | 64.5 | 85 |  |  | 1030
CCCc1c(Cc2ccccc2)c(=O)oc2cc(OC(=O)CC)ccc12 [Compound 37, 3-Benzyl-2-oxo-4-propyl-2H-chromen-7-yl propionate] | 120 to 121 | 19.4 | 38.8 |  |  | 
CCC(=O)Oc1ccc2c(CC)c(Cc3ccc(F)cc3)c(=O)oc2c1 [Compound 39, 4-Ethyl-3-(4-fluorobenzyl)-2-oxo-2H-chromen-7-yl propionate] | 97 to 98 | 75.4 | 76.3 |  | active | 140
CCCC(=O)Oc1cc2oc(=O)c(Cc3ccccc3)c(C)c2cc1Cl [Compound 41, 3-Benzyl-6-chloro-4-methyl-2-oxo-2H-chromen-7-yl butyrate] | 107 to 108 | 21 | 25.8 |  |  | 
CCCC(=O)Oc1ccc2c(CCC)c(Cc3ccccc3)c(=O)oc2c1 [Compound 44, 3-Benzyl-2-oxo-4-propyl-2H-chromen-7-yl butyrate] | 105 to 106 | 14 | 38.9 |  |  | 
CCCC(=O)Oc1ccc2c(C)c(Cc3ccc(F)cc3)c(=O)oc2c1 [Compound 45, 3-(4-Fluorobenzyl)-4-methyl-2-oxo-2H-chromen-7-yl butyrate] | 85 to 86 | 45.3 | 72.3 |  |  | 824
CCCC(=O)Oc1ccc2c(CC)c(Cc3ccc(F)cc3)c(=O)oc2c1 [Compound 46, 4-Ethyl-3-(4-fluorobenzyl)-2-oxo-2H-chromen-7-yl butyrate] | 79 | 76.9 | 96.5 |  | active | 909
CCCC(=O)Oc1ccc2c(CCC)c(Cc3ccc(F)cc3)c(=O)oc2c1 [Compound 47, 3-(4-Fluorobenzyl)-2-oxo-4-propyl-2H-chromen-7-yl butyrate] | 88 to 90 | 57 | 70.3 |  |  | 944
CCCCC(=O)Oc1ccc2c(C)c(Cc3ccccc3)c(=O)oc2c1 [Compound 48, 3-Benzyl-4-methyl-2-oxo-2H-chromen-7-yl pentanoate] | 110 to 111 | 18.8 | 21.2 |  |  | 
CCCCC(=O)Oc1cc2oc(=O)c(Cc3ccccc3)c(C)c2cc1Cl [Compound 49, 3-Benzyl-6-chloro-4-methyl-2-oxo-2H-chromen-7-yl pentanoate] | 108 to 109 | 8.15 | 20.3 |  |  | 
CCCCC(=O)Oc1ccc2c(CC)c(Cc3ccccc3)c(=O)oc2c1 [Compound 50, 3-Benzyl-4-ethyl-2-oxo-2H-chromen-7-yl pentanoate] | 72 to 73 | 37.2 | 43.2 |  |  | 
CCCCC(=O)Oc1ccc2c(CCC)c(Cc3ccccc3)c(=O)oc2c1 [Compound 51, 3-Benzyl-2-oxo-4-propyl-2H-chromen-7-yl pentanoate] | 78 to 79 | 29.5 | 42.5 |  |  | 
CCCCC(=O)Oc1ccc2c(CC)c(Cc3ccc(F)cc3)c(=O)oc2c1 [Compound 52, 4-Ethyl-3-(4-fluorobenzyl)-2-oxo-2H-chromen-7-yl pentanoate] | 70 to 71 | 42.8 | 34 |  | inactive | 
N#Cc1c(C(=O)c2ccccc2)c(=O)oc2cc(O)ccc12 [Compound 87, 3-Benzoyl-4-cyano-7-hydroxycoumarin] |  | 31.9 | 30 |  |  | 
